Assay results published in US20220144823A1, “PYRAZOLOPYRIDINE DERIVATIVES AS INHIBITORS OF PASK” (Galapagos NV, priority 2019, published 2022).

Test system: diabetic non human primates (NHPs) under a high-calorie diet (HCD)
Assay: Diabetic monkey model;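 note: male obese diabetic cynomolgus monkeys fed a high-fat, high-fructose diet, randomized into 4 groups, dosed with test compound for 8 weeks, then a 4-week washout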
Conditions: for Oral glucose tolerance test (glucose AUC): fasted animals; for Hepatic echogenicity (H/R ratio): Hepatic (right lobe)/Renal cortex (right kidney) ratio, ultrasound
[1] = week 1, treatment, metformin 25 mg/kg b.i.d., Cpd 18 30 mg/kg q.d., p.o.
[2] = week 2, treatment, metformin 25 mg/kg b.i.d., Cpd 18 30 mg/kg q.d., p.o.
[3] = week 3, treatment, metformin 25 mg/kg b.i.d., Cpd 18 30 mg/kg q.d., p.o.
[4] = week 4, treatment, metformin 25 mg/kg b.i.d., Cpd 18 30 mg/kg q.d., p.o.
[5] = week 9, washout without treatment
[6] = week 10, washout without treatment
[7] = week 11, washout without treatment
[8] = week 12, washout without treatment

Description: The aim of this assay is to determine the effect of a test compound on lipid metabolism and glucose handling in diabetic non human primates (NHPs) under a high-calorie diet (HCD) consisting of high-fat and high-fructose.
Male obese diabetic cynomolgus monkeys were selected based on their body weights, glucose, insulin levels, and blood lipid parameters. The inclusion criteria were the following: age ≤22 years; fasted plasma glucose between 120 and 300 mg/dL; triglycerides >125 mg/dL, and insulin >75 mIU/mL.
The animals are maintained at 20-23° C. and 40-70% humidity on a 12 h light/dark cycle (7 AM-7 PM). Water is provided ad libitum and the animals are fed twice daily with the high-calorie diet (HCD) enriched with seasonal fruits or vegetables.
After the baseline period, animals were randomized into 4 groups according to body weight, as well as their blood glucose and lipid parameters.
The following parameters were measured once per week during the 8 weeks of treatment and also during the 4 weeks of washout: • body weight • food consumption • blood chemistry (fasted blood glucose, plasma triglycerides, plasma total cholesterol, low density lipoproteins (LDL), and high density lipoproteins (HDL))
Oral glucose tolerance was measured in fasted animals before treatment initiation (baseline), at the end of the treatment period (week 8), and after 4 weeks of washout (week 12).

`Cc1nn(C(C)C)c(C)c1-c1cnn2ccc(-c3cc(C(=O)O)co3)cc12` [Cpd 18, 5-[3-(1-isopropyl-3,5-dimethyl-pyrazol-4-yl)pyrazolo[1,5-a]pyridin-5-yl]furan-3-carboxylic acid] was tested, and the “Total cholesterol change (% change from baseline)” value (Group 3, week 9, washout) was −31.5 % change from baseline, the “Triglyceride change (% change from baseline)” value (Group 3, week 9, washout) was −49.3 % change from baseline and the “HDL change (% change from baseline)” value (Group 3, week 10, washout) was 8.0%. For the same compound, the “LDL change (% change from baseline)” value (Group 3, week 10, washout) was −13.5%, the “Total cholesterol change (% change from baseline)” value (Group 3, week 10, washout) was −8.2 % change from baseline and the “Triglyceride change (% change from baseline)” value (Group 3, week 10, washout) was −45.9 % change from baseline. The “HDL change (% change from baseline)” value (Group 3, week 11, washout) was 21.9%, the “LDL change (% change from baseline)” value (Group 3, week 11, washout) was 10.2% and the “Total cholesterol change (% change from baseline)” value (Group 3, week 11, washout) was 15.5 % change from baseline. For the same compound, the “Triglyceride change (% change from baseline)” value (Group 3, week 11, washout) was −19.9 % change from baseline, the “HDL change (% change from baseline)” value (Group 3, week 12, washout) was 23.9% and the “LDL change (% change from baseline)” value (Group 3, week 12, washout) was 46.2%. For the same compound, the “Total cholesterol change (% change from baseline)” value (Group 3, week 12, washout) was 48.7 % change from baseline, the “Triglyceride change (% change from baseline)” value (Group 3, week 12, washout) was 18.8 % change from baseline and the “HDL change (% change from baseline)” value (Group 4, week 1, treatment) was 2.1%. For the same compound, the “LDL change (% change from baseline)” value (Group 4, week 1, treatment) was 67.1%, the “Total cholesterol change (% change from baseline)” value (Group 4, week 1, treatment) was 50.9 % change from baseline and the “Triglyceride change (% change from baseline)” value (Group 4, week 1, treatment) was −31.7 % change from baseline. The “HDL change (% change from baseline)” value (Group 4, week 2, treatment) was −13.1%, the “LDL change (% change from baseline)” value (Group 4, week 2, treatment) was 46.7% and the “Total cholesterol change (% change from baseline)” value (Group 4, week 2, treatment) was 30.3 % change from baseline. The “Triglyceride change (% change from baseline)” value (Group 4, week 2, treatment) was −30.0 % change from baseline, the “HDL change (% change from baseline)” value (Group 4, week 3, treatment) was −14.9% and the “LDL change (% change from baseline)” value (Group 4, week 3, treatment) was 33.6%. The “Total cholesterol change (% change from baseline)” value (Group 4, week 3, treatment) was 20.9 % change from baseline, the “Triglyceride change (% change from baseline)” value (Group 4, week 3, treatment) was −28.2 % change from baseline and the “HDL change (% change from baseline)” value (Group 4, week 4, treatment) was −16.0%. The “LDL change (% change from baseline)” value (Group 4, week 4, treatment) was −21.9%, the “Total cholesterol change (% change from baseline)” value (Group 4, week 4, treatment) was −22.6 % change from baseline and the “Triglyceride change (% change from baseline)” value (Group 4, week 4, treatment) was −48.3 % change from baseline. For the same compound, the “HDL change (% change from baseline)” value (Group 4, week 5, treatment) was −6.9%, the “LDL change (% change from baseline)” value (Group 4, week 5, treatment) was 0.0% and the “Total cholesterol change (% change from baseline)” value (Group 4, week 5, treatment) was −7.8 % change from baseline. For the same compound, the “Triglyceride change (% change from baseline)” value (Group 4, week 5, treatment) was −52.3 % change from baseline, the “HDL change (% change from baseline)” value (Group 4, week 6, treatment) was 0.3% and the “LDL change (% change from baseline)” value (Group 4, week 6, treatment) was 2.1%. The “Total cholesterol change (% change from baseline)” value (Group 4, week 6, treatment) was −2.6 % change from baseline, the “Triglyceride change (% change from baseline)” value (Group 4, week 6, treatment) was −50.8 % change from baseline and the “HDL change (% change from baseline)” value (Group 4, week 7, treatment) was 0.9%. For the same compound, the “LDL change (% change from baseline)” value (Group 4, week 7, treatment) was −38.5%, the “Total cholesterol change (% change from baseline)” value (Group 4, week 7, treatment) was −32.9 % change from baseline and the “Triglyceride change (% change from baseline)” value (Group 4, week 7, treatment) was −63.2 % change from baseline. For the same compound, the “HDL change (% change from baseline)” value (Group 4, week 8, treatment) was 8.7%, the “LDL change (% change from baseline)” value (Group 4, week 8, treatment) was −32.5% and the “Total cholesterol change (% change from baseline)” value (Group 4, week 8, treatment) was −26.1 % change from baseline. The “Triglyceride change (% change from baseline)” value (Group 4, week 8, treatment) was −56.1 % change from baseline, the “HDL change (% change from baseline)” value (Group 4, week 9, washout) was 18.9% and the “LDL change (% change from baseline)” value (Group 4, week 9, washout) was −20.0%. The “Total cholesterol change (% change from baseline)” value (Group 4, week 9, washout) was −15.5 % change from baseline, the “Triglyceride change (% change from baseline)” value (Group 4, week 9, washout) was −60.2 % change from baseline and the “HDL change (% change from baseline)” value (Group 4, week 10, washout) was 6.0%. The “LDL change (% change from baseline)” value (Group 4, week 10, washout) was 29.3%, the “Total cholesterol change (% change from baseline)” value (Group 4, week 10, washout) was 10.9 % change from baseline and the “Triglyceride change (% change from baseline)” value (Group 4, week 10, washout) was −58.1 % change from baseline. The “HDL change (% change from baseline)” value (Group 4, week 11, washout) was 11.0%, the “LDL change (% change from baseline)” value (Group 4, week 11, washout) was 45.1% and the “Total cholesterol change (% change from baseline)” value (Group 4, week 11, washout) was 28.5 % change from baseline. The “Triglyceride change (% change from baseline)” value (Group 4, week 11, washout) was −41.4 % change from baseline, the “HDL change (% change from baseline)” value (Group 4, week 12, washout) was 12.0% and the “LDL change (% change from baseline)” value (Group 4, week 12, washout) was 87.5%. For the same compound, the “Total cholesterol change (% change from baseline)” value (Group 4, week 12, washout) was 58.3 % change from baseline, the “Triglyceride change (% change from baseline)” value (Group 4, week 12, washout) was −65.4 % change from baseline and the “Oral glucose tolerance test (glucose AUC)” value (“Oral glucose tolerance test” below) (week 0, baseline (before treatment initiation)) was 2371 mmol·min/L. For the same compound, the “Bodyweight change (% change from baseline)” value [1] was 0.4%, the “HbA1c change (% change from baseline)” value [1] was −6.3% and the “Bodyweight change (% change from baseline)” value [2] was −1.9%. For the same compound, the “HbA1c change (% change from baseline)” value [2] was −9.4%, the “Bodyweight change (% change from baseline)” value [3] was −3.8% and the “HbA1c change (% change from baseline)” value [3] was −17.2%. The “Bodyweight change (% change from baseline)” value [4] was −5.6%, the “HbA1c change (% change from baseline)” value [4] was −24.1% and the “Oral glucose tolerance test” value (week 8, end of treatment period) was 2307 mmol·min/L. The “Bodyweight change (% change from baseline)” value [5] was −13.6%, the “HbA1c change (% change from baseline)” value [5] was −30.7% and the “Hepatic echogenicity (H/R ratio)” value (week 9, washout) was 1.03. The “Bodyweight change (% change from baseline)” value [6] was −14.5%, the “HbA1c change (% change from baseline)” value [6] was −25.6% and the “Bodyweight change (% change from baseline)” value [7] was −14.3%. The “HbA1c change (% change from baseline)” value [7] was −21.3%, the “Oral glucose tolerance test” value (week 12, after 4 weeks of washout) was 2291 mmol·min/L and the “Bodyweight change (% change from baseline)” value [8] was −14.8%. The “HbA1c change (% change from baseline)” value [8] was −27.9% and the “Hepatic echogenicity (H/R ratio)” value (week −3, baseline) was 1.13.
